Data from PubChem BioAssay (NCI).
“And” between values parts separate entries of the source, which are not always exact repeats. Equal values may be shown once.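 Exposure lasted 48 hours, with cells grown in 96-well plates and compounds tested at five concentrations. Here, GI50 denotes the concentration required for 50% inhibition of growth. TGI denotes the concentration required for complete inhibition of growth.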

Tests used:
Test in all cases: growth of human tumour cells (NCI), 48 h
[1] = system: A549 NSCLC
[2] = system: COLO 205 colon
[3] = system: EKVX NSCLC
[4] = system: IGROV1 ovarian
[5] = system: OVCAR-3 ovarian
[6] = system: SF-539 CNS
[7] = system: SK-OV-3 ovarian
[8] = system: UACC-257 melanoma
[9] = system: UO-31 renal
[10] = system: HCC-2998 colon

Row | SMILES | GI50 [1] [µM] | TGI [1] [µM] | GI50 [2] [µM] | TGI [2] [µM] | GI50 [3] [µM] | TGI [3] | GI50 [4] | TGI [4] | GI50 [5] [µM] | TGI [5] [µM] | GI50 [6] [µM] | TGI [6] | GI50 [7] [µM] | TGI [7] [µM] | GI50 [8] [µM] | TGI [8] | GI50 [9] [µM] | TGI [9] | TGI [10] | GI50 [10] [µM]
1 | O=c1cccc(C#CC#CC2=CCCCC2)o1 | 10.1 | > 47.7 | 4.58 | 13.5 | 10.2 | 25.8 µM | 5.4 µM | 18.1 µM | 6.66 | 10.4 | 0.235 | 3.04 µM | 10.5 | 27.9 | 7.49 | 12.9 µM | 3.99 | 11 µM |  | 
2 | CCCCCCCCCCCC(=O)OCC1OC(OC)C(NC(=O)N(CCCl)N=O)C(O)C1O (configuration not stated) |  | 36.8 |  | 59 |  |  |  | > 100 µM |  | 33.4 |  | 14.8 µM |  |  |  | 27.5 µM |  | 33.5 µM | 33.2 µM | 
3 | OCc1ccc(C2CC(c3ccco3)=NN2c2ccccc2)o1 (configuration not stated) |  | > 100 |  | > 100 |  | > 100 µM |  | > 100 µM |  | > 100 |  | > 100 µM |  |  |  |  |  | > 100 µM |  | 
4 | Nc1ccc2cc3ccc(N)cc3nc2c1 |  |  | 0.936 |  | 0.64 | 10.6 µM and 6.53 µM and 7.66 µM | 2.07 µM [middle of 4 runs] | 7.69 µM [middle of 4 runs] | 1.7 |  | 1.56 | 4.54 µM [middle of 4 runs] |  |  | 0.994 | 5.03 µM [middle of 4 runs] | 0.412 | 5.13 µM [middle of 4 runs] | 4.87 µM and 2.56 µM and 2.47 µM | 
5 | CC(=O)C(=CN1CCN(C(=O)c2ccco2)C1=S)C(C)=O | 11.2 | 32.7 | 23.4 | 54.9 | 11.2 | 28.6 µM | 3.64 µM | 17.3 µM | 11.4 | 35.9 |  |  | 20 | 43.9 | 2.51 | 12.1 µM | 2.92 | 10.8 µM |  | 
6 | Cn1c2ccccc2c(=O)c2ccc(Cl)cc21 |  | > 10 |  | > 10 |  | > 10 µM |  | > 10 µM |  | > 10 |  | > 10 µM |  | > 10 |  |  |  |  | > 10 µM | 
7 | O=C(/C=C\c1ccc(NCc2ccc(C(=O)O)cc2)cc1)CCl | 17.2 | 33 | 14.2 | 29.4 |  |  | 16.7 µM | 37.2 µM | 11.7 | 24.6 | 15.5 | 29.3 µM | 15.1 | 28.8 | 11.4 | 23.8 µM | 14.6 | 29.2 µM |  | 
8 | O=C1NC2OC(C(O)CO)C(O)C2O1 (configuration not stated) |  | > 100 |  | > 100 |  | > 100 µM |  | > 100 µM |  | > 100 |  |  |  | > 100 |  | > 100 µM |  | > 100 µM | > 100 µM | 
9 | O=C1OC2CCCC[C@@H]2C2C[C@]34CCCCC3[C@@H](C(=O)O4)C12 (some centres not stated) |  | > 100 |  | > 100 |  | > 100 µM |  |  |  | > 100 |  | > 100 µM |  | > 100 |  | > 100 µM |  | > 100 µM | > 100 µM | 
10 | CC(C)C[C@H](NC(=O)/C=C/Cn1ccc2ccccc2c1=O)B(O)O | 5.35 | > 100 | 5.93 | > 100 |  |  | 10.8 µM | > 100 µM | 2.55 | 7.88 | 2.16 | 6.45 µM | 10.5 | 92.2 | 2.12 | 7.02 µM | 9.45 | > 100 µM | 14.2 µM | 4.38
11 | C1C[OH+]CC[OH+]CC[OH+]CC[OH+]CC[OH+]1.[Cl-].[V] | 61.1 | > 100 | > 100 | > 100 |  |  | 42.7 µM | > 100 µM | 58.2 | > 100 | 16.5 | 31.6 µM | 67.8 | > 100 | 29.3 | > 100 µM | 86.3 | > 100 µM | > 100 µM | > 100
12 | COc1c(CCl)cc(-c2cc(=O)c3ccccc3s2)cc1CCl |  | > 100 |  | > 100 |  | > 100 µM |  | > 100 µM |  | > 100 |  | > 42.3 µM |  | > 60.2 |  | > 100 µM |  | 3.84 µM |  | 
13 | COc1cc(NC(C)CCCN)c2nccc(C)c2c1 (configuration not stated) |  | > 100 |  | 28.4 |  | > 100 µM |  | 44.6 µM |  | 67.9 |  | 35.3 µM |  | 58.5 |  |  |  | 53.8 µM | 38.7 µM | 
14 | O=C1CSC(c2ccc(Cl)cc2Cl)N1c1ccc(F)cc1 (configuration not stated) | 19.1 | 36.1 |  |  | 17.6 | 34.8 µM | 16.1 µM | 33.1 µM | 17.2 | 32.1 | 19.2 | 33.4 µM |  |  | 20.1 | 36.5 µM | 16.6 | 31.5 µM | 31.5 µM | 17.6
15 | O=C(CCC1OCCO1)Nc1cc(NCc2ccccc2)ccc1OCc1ccccc1 |  | > 100 |  | 52.1 |  | 65.5 µM |  | > 100 µM |  |  |  | 94.6 µM |  | > 100 |  | 53.3 µM |  | > 100 µM | > 100 µM | 
16 | CN(C)c1cc[c]([Sn]([c]2ccc(N(C)C)cc2)([c]2ccc(N(C)C)cc2)[c]2ccc(N(C)C)cc2)cc1 | 13.8 | 37.5 | 4.19 | 17.7 | 6.74 | 28 µM | 5.25 µM | 19.6 µM | 3.38 | 18.9 | 15.8 | 33.4 µM | 28 | 49.5 |  |  | 8.76 | 21.1 µM | 18.9 µM | 4.32
17 | CN(CCC#N)c1ccc(/C=C(\C#N)c2ccc(Br)cc2)cc1 |  |  |  |  |  |  | > 100 µM | > 100 µM |  |  |  |  | > 100 | > 100 | > 100 | > 100 µM | > 100 | > 100 µM |  | 
18 | COc1ccc(/C=C/C(=O)C(CC2CCC2)C(=O)/C=C/c2ccc(OC)c(OC)c2)cc1OC |  |  | 2.41 | 5 | 2.73 | 9.9 µM | 2 µM | 5.27 µM | 1.04 | 3.04 | 1.71 | 3.57 µM | 2.69 | 6.69 | 1.86 | 3.41 µM | 1.56 | 2.9 µM | 3.41 µM | 1.85
